# Test results from patent US20240148821A1, “PHARMACEUTICAL USE OF CYCLIC PEPTIDE COMPOUND” (CHUGAI SEIYAKU KABUSHIKI KAISHA, priority 2021, published 2024).
# Read-outs that look alike come from different tables or passages of the source. Bridge positions count the residues as written; N and C are the ends. Square brackets hold non-standard residues; d marks the D form. Peptide text beside a SMILES is read from it. * marks the point of attachment. hPhe(3,5-F2-4-CF3) = N[C@@H](CCc1cc(F)c(C(F)(F)F)c(F)c1)C(=O)O; hPhe(3-Cl-4-CF3) = N[C@@H](CCc1ccc(C(F)(F)F)c(Cl)c1)C(=O)O; NEtPhe(4-Me) = CCN[C@@H](Cc1ccc(C)cc1)C(=O)O; NMeGly(cPent) = CN[C@H](C(=O)O)C1CCCC1; NMeCha = CN[C@@H](CC1CCCCC1)C(=O)O; NMeChg = CN[C@H](C(=O)O)C1CCCCC1; NMeD = CN[C@@H](CC(=O)O)C(=O)O; NMeL = CN[C@@H](CC(C)C)C(=O)O; NMeA = CN[C@@H](C)C(=O)O; Piperidide = C1CCN(*)CC1; Ac5c = NC1(C(=O)O)CCCC1; Aze = O=C(O)[C@@H]1CCN1; Sar = CNCC(=O)O
# Assays:
# [1] = system: non-small cell lung cancer cell line NC1-1441 with a KRAS mutation; test: In vivo antitumor activity, mouse xenograft model, NCI-H441; conditions: NCI-H441 (NSCLC) xenograft, 14 days
# Description: (§1) Tumor growth inhibition rate (TGI %)=(1−TV/CV)×100
# [2] = system: large bowel carcinoma cell line LoVo; conditions: LoVo (Colon) xenograft, 10 mg/kg once daily, 10 days
# Description: (§2) Each type of cell line was subcutaneously grafted into nude mice, which were randomized after tumor size reached 200 to 300 mm^3, and compound administration (once daily) was initiated (Day 0). The solvents used to dissolve the compounds were DMSO and Cremophor EL. […] From the tumor volume data on the last measurement day, the tumor growth inhibition rate (TGI %: Tumor Growth Inhibition %) was calculated using the following expressions.
# (§3) tumor volume (mm^3):½×long diameter (mm)×short diameter (mm)×short diameter (mm)
# (§4) amount of change in tumor volume (mm^3)=tumor volume after Day 0−tumor volume at Day 0 • TV: average value of amount of change in tumor volume in administered group • CV: average value of amount of change in tumor volume in non-administered group
# [3] = system: pancreatic cancer cell line MIA PaCa-2; conditions: MIA PaCa-2 (Pancreas) xenograft, 14 days
# Description: as §2, §3, §4
# [4] = system: gastric cancer cell line MKN-1 with an amplified copy number of the KRAS gene; conditions: MKN1 (Stomach) xenograft, 10 days
# Description: as §2, §3, §4
# [5] = system: large bowel carcinoma cell line LS 180; test: In vivo antitumor activity, mouse xenograft model, LS 180; conditions: LS 180 (Colon) xenograft, 7 days
# Description: as §1
# [6] = system: various cancer cell lines (Ras mutation or amplification); test: Measurement of cell growth inhibitory activity against various cancer cell lines (CellTiter-Glo); format: cell-based, human
# Description: Various cancer cell lines used were purchased from commercial suppliers. […] The cell suspension and culture medium supplemented with serum were dispensed to a plate containing the test compounds at 40 μL (384 well plate) or 200 μL (96 well plate) per well and incubated in a carbon dioxide gas incubator. […] Six days or seven days after the start of cultivation, 20 μL of CellTiter-Glo (Promega) was added to each well and fluorescence was measured.
# [7] = system: pancreatic cancer cell line KP4; conditions: KP4 (Pancreas) xenograft, 10 days
# Description: as §2, §3, §4
# [8] = system: Human pancreatic cancer cell line AsPC-1 (G12D mutation Kras); test: AsPC-1 cell growth inhibition (AsPC-1 CGI); format: cell-based; conditions: read-out: AsPC-1 cell growth inhibition, 50% growth inhibitory concentration (IC50 value); 96 hours, CellTiter-Glo, values classified in ranges
# Description: Test compounds were serially dilated with dimethyl sulfoxide, and 200 nL was then dispensed to a U-bottom 96-well plate using Labcyte Echo. […] The cell suspension was dispensed to a. plate containing a test compound at 100 μL per well and incubated at 37° C. in a 5% carbon dioxide gas incubator. 96 hours later, 80 μL of CellTiter-Glo (Promega) was added to each well and fluorescence was measured.
# [9] = biological target: human KRAS, gene copy number amplified (human) (UniProt P01116); test: cell-based or functional assay
# human KRAS G12D (human) = human KRAS G12D (human) (UniProt P01116); test: cell-based or functional assay
# human KRAS G12C (human) = human KRAS G12C (human) (UniProt P01116); test: cell-based or functional assay
# human KRAS G12V (human) = human KRAS G12V (human) (UniProt P01116); test: cell-based or functional assay
# human NRAS G13D (human) = human NRAS G13D (human) (UniProt P01111); test: cell-based or functional assay
# human KRAS G12S (human) = human KRAS G12S (human) (UniProt P01116); test: cell-based or functional assay
molecule,measurement,setting,value
"CC[C@H](C)[C@@H]1NC(=O)[C@H](CC(C)C)N(C)C(=O)C[C@@H](C(=O)N(C)C)N(C)C(=O)[C@H](C2CCCC2)N(C)C(=O)C2(CCCC2)NC(=O)[C@@H]2CCCN2C(=O)[C@H](CCc2cc(F)c(C(F)(F)F)c(F)c2)NC(=O)CN(C)C(=O)[C@H](Cc2ccc(C)cc2)N(CC)C(=O)[C@@H]2CCN2C(=O)[C@H](C)N(C)C1=O [Compound 1217, (5S,8S,11S,15S,18S,23aS,29S,35S,37aS)-8-((S)-sec-butyl)-18-cyclopentyl-29-(3,5-difluoro-4-(trifluoromethyl)phenethyl)-36-ethyl-1l-isobutyl-N,N,5,6,12,16,19,33-octamethyl-35-(4-methylbenzyl)-4,7,10,13,17,20,23,28,31,34,37-undecaoxotetratriacontahydro-2H,4H-spiro[azeto[2,1-u]pyrrolo[2,1-i][1,4,7,10,13,16,19,22,25,28,31]undecaazacyclotetratriacontine-21,1′-cyclopentane]-15-carboxamide] ([NMeL]I[NMeA][Aze][NEtPhe(4-Me)][Sar][hPhe(3,5-F2-4-CF3)]P[Ac5c][NMeGly(cPent)][NMeD]-NMe2; lactam N-11)",TGI (%),[1]; 3 mg/kg once daily,59%
same,TGI (%),[1]; 5 mg/kg once daily,92%
same,TGI (%),[1]; 10 mg/kg once daily,110%
same,TGI (%),[2],85%
same,TGI (%),[3]; 3 mg/kg once daily,16%
same,TGI (%),[3]; 5 mg/kg once daily,65%
same,TGI (%),[3]; 10 mg/kg once daily,149%
same,TGI (%),[4]; 5 mg/kg once daily,55%
same,TGI (%),[4]; 10 mg/kg once daily,205%
same,TGI (%),[5]; 3 mg/kg once daily,11%
same,TGI (%),[5]; 5 mg/kg once daily,38%
same,TGI (%),[5]; 10 mg/kg once daily,65%
same,IC50,"[6]; A549, NSCLC, KRAS G12S",0.3 nM
same,IC50,"[6]; AGS, Stomach, KRAS G12D",0.32 nM
same,IC50,"[6]; AML-193, AML, NRAS G13V",11.8 nM
same,IC50,"[6]; AsPC-1, Pancreas, KRAS G12D",0.87 nM
same,IC50,"[6]; C-643, Thyroid, HRAS G13R",3.24 nM
same,IC50,"[6]; CFPAC-1, Pancreas, KRAS G12V",17.3 nM
same,IC50,"[6]; COR-L23, NSCLC, KRAS Amp (G12V)",2.85 nM
same,IC50,"[6]; Calu-6, NSCLC, KRAS Q61K",43.7 nM
same,IC50,"[6]; DLD-1, Colon, KRAS G13D",5.08 nM
same,IC50,"[6]; DMS 53, SCLC, KRAS Amp",12.2 nM
same,IC50,"[6]; FAMPAC, Pancreas, KRAS G12V",2.09 nM
same,IC50,"[6]; HCC-44, NSCLC, KRAS G12C",0.55 nM
same,IC50,"[6]; HCC-1171, NSCLC, KRAS G12C",4.86 nM
same,IC50,"[6]; HCT-116, Colon, KRAS G13D",8.58 nM
same,IC50,"[6]; HEC-50B, Endometrium, KRAS G12D",43.8 nM
same,IC50,"[6]; HEC-151, Endometrium, NRAS G12D",2.42 nM
same,IC50,"[6]; HLG-1, NSCLC, KRAS G12V",3.29 nM
same,IC50,"[6]; HPAC, Pancreas, KRAS G12D",2.19 nM
same,IC50,"[6]; HuG1-N, Stomach, KRAS Amp",3.74 nM
same,IC50,"[6]; IPC-298, Skin, NRAS Q61L",23.5 nM
same,IC50,"[6]; KE-39, Stomach, KRAS Amp",0.8 nM
same,IC50,"[6]; KLE, Endometrium, KRAS Amp",170 nM
same,IC50,"[6]; KMM-1, Myeloma, NRAS G13D",8.59 nM
same,IC50,"[6]; KP4, Pancreas, KRAS G12D",3.3 nM
same,IC50,"[6]; KURAMOCHI, Ovary, KRAS Amp",1.18 nM
same,IC50,"[6]; LS 174T, Colon, KRAS G12D",4.31 nM
same,IC50,"[6]; LS 180, Colon, KRAS G12D",0.83 nM
same,IC50,"[6]; LS513, Colon, KRAS G12D",3.69 nM
same,IC50,"[6]; LoVo, Colon, KRAS G13D",5.5 nM
same,IC50,"[6]; MIA PaCa-2, Pancreas, KRAS G12C",1.45 nM
same,IC50,"[6]; MKN-1, Stomach, KRAS Amp",1.77 nM
same,IC50,"[6]; MOLT-4, ALL, NRAS G12C",175 nM
same,IC50,"[6]; NCI-H23, NSCLC, KRAS G12C",3.92 nM
same,IC50,"[6]; NCI-H358, NSCLC, KRAS G12C",1.55 nM
same,IC50,"[6]; NCI-H441, NSCLC, KRAS G12V",1.12 nM
same,IC50,"[6]; NCI-H460, NSCLC, KRAS Q61H",4.2 nM
same,IC50,"[6]; NCI-H929, Myeloma, NRAS G13D",9.79 nM
same,IC50,"[6]; NCI-H1373, NSCLC, KRAS G12C",2.33 nM
same,IC50,"[6]; NCI-H1385, NSCLC, KRAS G12C",14.3 nM
same,IC50,"[6]; NCI-H1792, NSCLC, KRAS G12C",0.86 nM
same,IC50,"[6]; NCI-H1944, NSCLC, KRAS G13D",2.53 nM
same,IC50,"[6]; NCI-H2009, NSCLC, KRAS G12A",2.35 nM
same,IC50,"[6]; NCI-H2030, NSCLC, KRAS G12C",4.05 nM
same,IC50,"[6]; NCI-H2122, NSCLC, KRAS G12C",0.8 nM
same,IC50,"[6]; NOMO-1, AML, KRAS G13D",6.5 nM
same,IC50,"[6]; PA-1, Ovary, NRAS G12D",2.38 nM
same,IC50,"[6]; PANC-1, Pancreas, KRAS G12D",44.3 nM
same,IC50,"[6]; RERF-LC-Ad2, NSCLC, KRAS G12V",5.2 nM
same,IC50,"[6]; SK-CO-1, Colon, KRAS G12V",0.49 nM
same,IC50,"[6]; SK-LU-1, NSCLC, KRAS G12D",26 nM
same,IC50,"[6]; SK-MEL-30, Skin, NRAS Q61K",91.6 nM
same,IC50,"[6]; SNU-1, Stomach, KRAS G12D",0.46 nM
same,IC50,"[6]; SW403, Colon, KRAS G12V",4.1 nM
same,IC50,"[6]; SW480, Colon, KRAS G12V",4.31 nM
same,IC50,"[6]; T.T, Esophageal, KRAS Amp",5.68 nM
same,IC50,"[6]; TYK-nu, Ovary, NRAS G12D, Q61K",1.14 nM
same,IC50,"[6]; UM-UC-3, Bladder, KRAS G12C",2.11 nM
same,TGI (%),[7]; 5 mg/kg once daily,65%
same,TGI (%),[7]; 10 mg/kg once daily,104%
same,IC50,[8],≤ 20 nM
[NMeL]I[Sar][Sar][NMeCha][Sar][hPhe(3-Cl-4-CF3)]P[Ac5c][NMeChg]D-Piperidide (lactam N-11; not fully specified (residue 11)) [Compound 558],"IC50, cell growth inhibition (CellTiter-Glo), A4/Fuk (Non-Hodgkin lymphoma), KRAS Amp",[9],5.83 nM
same,"IC50, cell growth inhibition (CellTiter-Glo), KURAMOCHI (Ovary), KRAS Amp",[9],23.4 nM
same,"IC50, cell growth inhibition (CellTiter-Glo), LS 180 (Colon)",human KRAS G12D (human),22.6 nM
same,"IC50, cell growth inhibition (CellTiter-Glo), SNU-1 (Stomach)",human KRAS G12D (human),29.8 nM
same,"IC50, cell growth inhibition (CellTiter-Glo), MIA PaCa-2 (Pancreas)",human KRAS G12C (human),18.7 nM
same,"IC50, cell growth inhibition (CellTiter-Glo), NCI-H441 (NSCLC)",human KRAS G12V (human),31.6 nM
same,"IC50, cell growth inhibition (CellTiter-Glo), SW480 (Colon)",human KRAS G12V (human),17.5 nM
same,"IC50, cell growth inhibition (CellTiter-Glo), NCI-H929 (Myeloma)",human NRAS G13D (human),55.7 nM
same,"IC50, cell growth inhibition (CellTiter-Glo), A549 (NSCLC)",human KRAS G12S (human),7.98 nM
